System: human chromosome
Assay: In-situ hybridization of a human chromosome: fluorescence-generating substrate reacted with probe-bonded peroxidase and hydrogen peroxide, observed by fluorescence microscope
Design: key to Intensity of Fluorescence / Binding: +++: Very strong.; ++: Strong.; +: Weak.; ±: Very weak.; -: Not detected
Conditions: for Binding: binding of the substrate to the chromosome, same reaction conditions; for Intensity of Fluorescence: human chromosome sample from peripheral blood lymphocytes, substrate in 0.01% hydrogen peroxide, room temperature 30 minutes, fluorescence microscope; for fluorescent signals observed: summary of Table 1
Excerpt: A human chromosome sample was hybridized with a digoxigenin-labeled, full-length human DNA probe, to which was bonded a peroxidase-labeled anti-digoxigenin antibody. This was reacted with any of fluorescence-generating substrates of the invention (Compounds 1 to 11) or with a comparative substrate of a commercially available, water-soluble fluorescent substrate, 3-(4-hydroxyphenyl)propionic acid (HPPA). […] The full-length human DNA probe hybridizes entirely with the human chromosome. Therefore, if the fluorescence-generating substrates tested herein are reacted in a reaction system comprising peroxidase and hydrogen peroxide, the entire chromosome in the system shall be seen to emit fluorescence in the fluorescence-microscopic observation.
The procedure is as follows:
Human chromosome samples were prepared from cultured human peripheral blood lymphocytes. Full-length human DNA was labeled with digoxigenin through nick translation, collected through ethanol precipitation, and dissolved in formamide to prepare a digoxigenin-labeled, full-length human DNA probe. Each human chromosome sample was immersed in a denaturing solution kept heated at 70° C., for 2 minutes, and then rapidly cooled by putting it into 70% ethanol cooled to 4° C., whereby the double-stranded DNA of the sample was kept dissociated in a single-stranded condition. The probe was kept in a water bath at 75° C. for 10 minutes, and then rapidly cooled in ice water with 5 minutes, whereby the double-stranded DNA of the probe was kept dissociated in a single-stranded condition. This probe was mixed with a hybridization solution, put on the human chromosome sample, and reacted with it overnight at 37° C. (in-situ hybridization).
After having been hybridized, the system was washed with a solution of 50% formamide/2×SSC at 37° C. for 15 minutes, then with 2×SSC at room temperature for 15 minutes, and then with 4×SSC at room temperature for 5 minutes, thereby removing the excess, non-hybridized probe therefrom. Next, a pcroxidase-labeled anti-digoxigenin antibody was diluted with a 1% blocking solution into a 1/100 dilution, and the resulting enzyme-labeled antibody dilution was put on the sample, and maintained at 37° C. for 1 hour. The excess enzyme antibody not bonded to the probe was removed by washing the system with a washing solution containing a surfactant. Any of the fluorescence-generating substrates (Compounds 1 to 11) of the invention and a commercially-available, water-soluble fluorescent substrate, HPPA was dissolved in a reactant solution containing 0.01% hydrogen peroxide […], and the resulting fluorescent substrate solution was put on the sample and reacted with it at room temperature for 30 minutes. After reacting in the reaction system comprising the probe-bonded peroxidase and hydrogen peroxide, the fluorescence-generating substrate formed a new compound which was fixed on the chromosome and emitted fluorescence, which was observed using a fluorescence microscopic.
The full-length human DNA probe hybridizes with the entire chromosome, with the result that the entire chromosome was stained with the fluorescence-generating substrate. Sample were processed with any of the fluorescent substrates (Compounds 1 to 11) as well as the commercially-available, water-soluble fluorescent substrate, […]. […] In addition, the binding of the substrate to the chromosome was checked.

Row | Structure (SMILES) | Binding | Intensity of Fluorescence | fluorescent signals observed | binding of the enzymatic reaction product to the chromosome (product after the enzymatic reaction)
1 | Cc1cc(O)ccc1NC(=O)c1ccccc1C [Compound 9] | ++ | ++ |  | 
2 | Cc1cc(C)c(C(=O)Nc2ccc(O)cc2C)c(C)c1 [Compound 10, 4-hydroxy-2-methylphenyl-2,4,6-trimethylbenzamide] | ++ | ++ |  | 
3 | O=C(O)CCCCCNC(=O)CCc1ccc(O)cc1 [Compound 11, 6-{3-(4-hydroxyphenyl)propionamido}hexanoic acid] | +++ | +++ | high-intensity fluorescent signals were observed | 
4 | O=C(O)CCc1ccc(O)cc1 [HPPA, 3-(4-hydroxyphenyl)propionic acid, reference compound] | + | ± | few fluorescent signals were detected | soluble in water or could not bind to the chromosome

— patent publication US6180844A, “Composition containing fluorescence-generating substrate” (Aisin Seiki Kabushiki Kaisha, priority 1998, dated 2001)
